Test results as given in patent publication US10570122B2, “Compounds with anti-tumoral activity” (AB Science, priority 2015, dated 2020).

How the values were obtained:
BXPC3 = assay: CellTiter-Blue cell-based survival/proliferation assay, BXPC3; conditions: Homo sapiens, BXPC-3; BXPC3 pancreas tumor cell line, 48 h
Method in brief: (§1)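 Tenfold compound dilutions (0–10 μM) were added to 1·10^4 cells/well. Plates incubated 48 h at 37 °C. CellTiter-Blue reduction (4 h, 37 °C) was read as fluorescence at 590 nm, background-corrected with a cell-free blank.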

HL60 = assay: CellTiter-Blue cell-based survival/proliferation assay, HL60; conditions: Homo sapiens, HL-60, Leukemia cell line HL60, 48 h, read-out: Anti-tumoral activity (measured IC50) HL60
Method in brief: as §1

CALU6 = assay: CellTiter-Blue cell-based survival/proliferation assay, CALU6; conditions: Homo sapiens, Calu-6; CALU6 lung tumor cell line, 48 h
Method in brief: as §1

CLS354 = assay: CellTiter-Blue cell-based survival/proliferation assay, CLS354; conditions: Homo sapiens, CLS-354; CLS354_4 head & neck tumor cell line, 48 h
Method in brief: as §1

KARPAS299 = assay: CellTiter-Blue cell-based survival/proliferation assay, KARPAS299; conditions: Homo sapiens, KARPAS-299, Lymphoma cell line KARPAS299, 48 h, read-out: Anti-tumoral activity (measured IC50) KARPAS299
Method in brief: as §1

SW579 = assay: CellTiter-Blue cell-based survival/proliferation assay, SW579; conditions: Homo sapiens; SW579 head & neck tumor cell line, 48 h
Method in brief: as §1

MESSA = assay: CellTiter-Blue cell-based survival/proliferation assay, MESSA; conditions: Homo sapiens, MES-SA; MESSA ovary tumor cell line, 48 h
Method in brief: as §1

OPM2 = assay: CellTiter-Blue cell-based survival/proliferation assay, OPM2; conditions: Homo sapiens, OPM-2, Myeloma cell line OPM2, 48 h, read-out: Anti-tumoral activity (measured IC50) OPM2
Method in brief: as §1

PC3 = assay: CellTiter-Blue cell-based survival/proliferation assay, PC3; conditions: Homo sapiens, PC-3; PC3 prostate tumor cell line, 48 h
Method in brief: as §1

HCT116 = assay: CellTiter-Blue cell-based survival/proliferation assay, HCT116; conditions: Homo sapiens, HCT-116; HCT116 colorectal tumor cell line, 48 h
Method in brief: as §1

A549 = assay: CellTiter-Blue cell-based survival/proliferation assay, A549; conditions: Homo sapiens; A549 lung tumor cell line, 48 h
Method in brief: as §1

[1] = test system: panel of about 34 human tumor cell lines; assay: Cell-based proliferation screening on panel of tumor cell lines; conditions: solid tumor cell line, cell line unknown, 48 h, read-out: IC50, solid tumor cell line of column 6 (last section of Table 3)
Method in brief: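 CellTiter-Blue survival assay with 1·10^4 cells/well, each line treated 48 h at 37° C with 1/10 serial dilutions from 0 to 10 μM. Resorufin formed during a 4 h reagent incubation is read by fluorescence at 590 nm. A cell-free blank serves as background.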

HEPG2 = assay: CellTiter-Blue cell-based survival/proliferation assay, HEPG2; conditions: Homo sapiens; HEPG2 liver tumor cell line, 48 h
Method in brief: as §1

MDAMB231 = assay: CellTiter-Blue cell-based survival/proliferation assay, MDAMB231; conditions: Homo sapiens, MDA-MB-231; MDAMB231 breast tumor cell line, 48 h
Method in brief: as §1

AGS = assay: CellTiter-Blue cell-based survival/proliferation assay, AGS; conditions: Homo sapiens; AGS stomach tumor cell line, 48 h
Method in brief: as §1

HEP2 = assay: CellTiter-Blue cell-based survival/proliferation assay, HEP2; conditions: Homo sapiens, HEp-2; HEP2 head & neck tumor cell line, 48 h
Method in brief: as §1

[2] = test system: human kinases (456 kinases); assay: KINOMEscan in vitro kinase profiling; assay type: binding
Protocol: An in vitro kinase profiling was conducted in order to evidence the absence of protein kinase inhibition by the compounds of the invention.
DiscoveRx (Ambit Biosciences) has developed a high-throughput system (KINOMEscan™) for screening of compounds against large numbers of human kinases (456 kinases).
The compounds of the invention were screened at the concentration of 1 μM, and results for primary screen binding interactions were reported as percent control (% Ctrl), where lower numbers indicate stronger hits. DMSO is used as a negative control (100% Ctrl) while a high affinity compound is used as a positive control (0% Ctrl). % Ctrl is calculated as follow:
[formula] Selectivity Score or S-score is a quantitative measure of compound selectivity. It is calculated by dividing the number of kinases that compounds bind to by the total number of distinct kinases tested, excluding mutant variants. S(10)=(number of kinases with % Ctrl<10)/(number of kinases tested), S(1)=(number of kinases with % Ctrl<1)/(number of kinases tested).

PLCPRF5 = assay: CellTiter-Blue cell-based survival/proliferation assay, PLCPRF5; conditions: Homo sapiens, PLC-PRF-5; PLC_PRF5 liver tumor cell line, 48 h
Method in brief: as §1

DU145 = assay: CellTiter-Blue cell-based survival/proliferation assay, DU145; conditions: Homo sapiens, DU-145; DU145 prostate tumor cell line, 48 h
Method in brief: as §1

REC1 = assay: CellTiter-Blue cell-based survival/proliferation assay, REC1; conditions: Homo sapiens, Lymphoma cell line REC1, 48 h, read-out: Anti-tumoral activity (measured IC50) REC1
Method in brief: as §1

A498 = assay: CellTiter-Blue cell-based survival/proliferation assay, A498; conditions: Homo sapiens; A498 kidney tumor cell line, 48 h
Method in brief: as §1

ACHN = assay: CellTiter-Blue cell-based survival/proliferation assay, ACHN; conditions: Homo sapiens; ACHN kidney tumor cell line, 48 h
Method in brief: as §1

PANC1 = assay: CellTiter-Blue cell-based survival/proliferation assay, PANC1; conditions: Homo sapiens, PANC-1; PANC_1 pancreas tumor cell line, 48 h
Method in brief: as §1

H1299 = assay: CellTiter-Blue cell-based survival/proliferation assay, H1299; conditions: Homo sapiens, NCI-H1299; H1299 lung tumor cell line, 48 h
Method in brief: as §1

HGC27 = assay: CellTiter-Blue cell-based survival/proliferation assay, HGC27; conditions: Homo sapiens, HGC-27; HGC27 stomach tumor cell line, 48 h
Method in brief: as §1

HUT78 = assay: CellTiter-Blue cell-based survival/proliferation assay, HUT78; conditions: Homo sapiens, Lymphoma cell line HUT78, 48 h, read-out: Anti-tumoral activity (measured IC50) HUT78
Method in brief: as §1

BT20 = assay: CellTiter-Blue cell-based survival/proliferation assay, BT20; conditions: Homo sapiens, BT-20; BT20 breast tumor cell line, 48 h
Method in brief: as §1

DLD1 = assay: CellTiter-Blue cell-based survival/proliferation assay, DLD1; conditions: Homo sapiens, DLD-1; DLD_1 colorectal tumor cell line, 48 h
Method in brief: as §1

TOV112D = assay: CellTiter-Blue cell-based survival/proliferation assay, TOV112D; conditions: Homo sapiens; TOV112D ovary tumor cell line, 48 h
Method in brief: as §1

Compound | IC50 (BXPC3) [µM] | IC50 (HL60) [µM] | IC50 (CALU6) [µM] | IC50 (CLS354) [µM] | IC50 (KARPAS299) [µM] | IC50 (SW579) [µM] | IC50 (MESSA) [µM] | IC50 (OPM2) [µM] | IC50 (PC3) [µM] | IC50 (HCT116) [µM] | IC50 (A549) [µM] | IC50 [1] [µM] | IC50 (HEPG2) [µM] | IC50 (MDAMB231) [µM] | IC50 (AGS) [µM] | IC50 (HEP2) [µM] | IC50 (PLCPRF5) [µM] | IC50 (DU145) [µM] | IC50 (REC1) [µM] | IC50 (A498) [µM] | also measured
CCOCc1ccc(C)c(Nc2ncc(-c3ccc(-n4cccn4)cc3)o2)c1 [Example 033, (5-Ethoxymethyl-2-methyl-phenyl)-[5-(4-pyrazol-1-yl-phenyl)-oxazol-2-yl]-amine] | 0.1 to 0.5 | ≤ 0.1 | ≤ 0.1 | ≤ 0.1 | ≤ 0.1 | > 1 | 0.1 to 0.5 | ≤ 0.1 | ≤ 0.1 | 0.1 to 0.5 | > 1 | ≤ 0.1 | 0.5 to 1 | > 1 | ≤ 0.1 | ≤ 0.1 | 0.5 to 1 | > 1 | ≤ 0.1 | 0.1 to 0.5 | Interaction with the 456 kinases tested ([2]; screened at 1 μM): do not efficiently interact; Number of hits/number of kinases, S1 ([2]; tested at 1 μM, S(1): kinases with % Ctrl<1): 0/456; S-score, S1 ([2]; tested at 1 μM, S(1)=(number of kinases with % Ctrl<1)/(number of kinases tested)): 0.000; Number of hits/number of kinases, S10 ([2]; tested at 1 μM, S(10): kinases with % Ctrl<10): 1/456; S-score, S10 ([2]; tested at 1 μM, S(10)=(number of kinases with % Ctrl<10)/(number of kinases tested)): 0.002; Kinase targets, S10 ([2]; tested at 1 μM, kinases with % Ctrl<10): CDKL3; IC50 (ACHN): ≤ 0.1 µM; IC50 (PANC1): > 1 µM; IC50 (H1299): > 1 µM; IC50 (HGC27): ≤ 0.1 µM; IC50 (HUT78): ≤ 0.1 µM; IC50 (BT20): 0.1 to 0.5 µM; IC50 (DLD1): ≤ 0.1 µM; IC50 (TOV112D): ≤ 0.1 µM
CCOCc1ccc(C)c(Nc2ncc(-c3ccc(-c4ccccn4)cc3)o2)c1 [Example 048, (5-Ethoxymethyl-2-methyl-phenyl)-[5-(4-pyridin-2-yl-phenyl)-oxazol-2-yl]-amine] | > 1 | 0.1 to 0.5 | > 1 | 0.5 to 1 | 0.5 to 1 | > 1 | > 1 | 0.5 to 1 | > 1 | > 1 | > 1 | 0.5 to 1 | > 1 | > 1 | > 1 | > 1 | > 1 | > 1 | 0.5 to 1 | > 1 | IC50 (ACHN): > 1 µM; IC50 (PANC1): > 1 µM; IC50 (H1299): > 1 µM; IC50 (HGC27): > 1 µM; IC50 (HUT78): 0.5 to 1 µM; IC50 (BT20): > 1 µM; IC50 (DLD1): > 1 µM; IC50 (TOV112D): > 1 µM
CCOCc1cc(C)cc(Nc2ncc(-c3ccc(-n4cccn4)cc3)o2)c1 [Example 021, (3-Ethoxymethyl-5-methyl-phenyl)-[5-(4-pyrazol-1-yl-phenyl)-oxazol-2-yl]-amine] | > 1 | 0.1 to 0.5 | > 1 | 0.1 to 0.5 | 0.1 to 0.5 | > 1 | > 1 | 0.1 to 0.5 | 0.5 to 1 | > 1 | > 1 | 0.1 to 0.5 | > 1 | > 1 | > 1 | > 1 | > 1 | > 1 | 0.1 to 0.5 | > 1 | IC50 (ACHN): > 1 µM; IC50 (PANC1): > 1 µM; IC50 (H1299): > 1 µM; IC50 (HGC27): > 1 µM; IC50 (HUT78): 0.5 to 1 µM; IC50 (BT20): > 1 µM; IC50 (DLD1): 0.5 to 1 µM; IC50 (TOV112D): > 1 µM
CCOCc1cc(COCC)cc(Nc2ncc(-c3ccc(-n4cccn4)cc3)o2)c1 [Example 022, (3,5-Bis-(ethoxymethyl)-phenyl)-[5-(4-pyrazol-1-yl-phenyl)-oxazol-2-yl]-amine] | > 1 | > 1 | > 1 | > 1 | 0.1 to 0.5 | > 1 | > 1 | 0.5 to 1 | > 1 | > 1 | > 1 | 0.5 to 1 | > 1 | > 1 | > 1 | > 1 | > 1 | > 1 | 0.5 to 1 | > 1 | IC50 (ACHN): > 1 µM; IC50 (PANC1): > 1 µM; IC50 (H1299): > 1 µM; IC50 (HGC27): > 1 µM; IC50 (HUT78): > 1 µM; IC50 (BT20): > 1 µM; IC50 (DLD1): > 1 µM; IC50 (TOV112D): > 1 µM
CCOCc1ccc(C)c(Nc2ncc(-c3ccc(-c4ccc[nH]c4=O)cc3)o2)c1 [Example 050, 3-{4-[2-(5-Ethoxymethyl-(2-methyl-phenylamino))-oxazol-5-yl]-phenyl}-1H-pyridin-2-one] | > 1 | 0.5 to 1 | > 1 | > 1 | 0.1 to 0.5 | > 1 | > 1 | 0.5 to 1 | > 1 | > 1 | > 1 | 0.5 to 1 | > 1 | > 1 | > 1 | > 1 | > 1 | > 1 | 0.5 to 1 | > 1 | IC50 (ACHN): > 1 µM; IC50 (PANC1): > 1 µM; IC50 (H1299): > 1 µM; IC50 (HGC27): > 1 µM; IC50 (HUT78): > 1 µM; IC50 (BT20): > 1 µM; IC50 (DLD1): > 1 µM; IC50 (TOV112D): > 1 µM
